For one compound, Activity results are on record in ChEMBL document CHEMBL5241120, “Insights into the medicinal chemistry of heterocycles integrated with a pyrazolo[1,5-a]pyrimidine scaffold” (RSC Med Chem, 2022).

Test [1] relates to Mus musculus. Put plainly: Anxiolytic activity in mouse assessed as time spent in light at 100 mg/kg, po. It counts as functional.
Test [2] relates to Mus musculus. As to the kind of experiment: Anxiolytic activity in mouse assessed as transfer number at 100 mg/kg, po. Type of test: functional.

Structures are written as SMILES.

`CCOC(=O)c1ncn2c1CN(C)C(=O)c1cc(F)ccc1-2` [FLUMAZENIL]: the Activity in test [1] is 120.08%; in test [2], 12.8.
